Among the data in ChEMBL document CHEMBL2010795, “Anti-inflammatory and anti-arthritic effects of new synthetic 3-(4-hydroxyphenyl)-4-(4-thiomethoxyphenyl)-1H-pyrrole-2,5-dione” (2012) are inhibition and Activity values, retold here.

Calls of active or inactive are those of the source. The calls are words filed in the database; no cut-off is given here.

In test [1] the test system is Rattus norvegicus. Put plainly: Antiinflammatory activity in rat assessed as inhibition of carrageenan-induced hind paw edema at 50 mg/kg, po administered 1 hr before carrageenan challenge measured up to 5 hrs by plethysmometer. Set-up: dose 50 mg/kg. The format is functional, organism-based. Background: In the carrageenan paw model, swelling and tenderness develop within hours.

Test [2] relates to Rattus norvegicus. Put plainly: Antiarthritic activity in Freund's complete adjuvant-induced Sprague-Dawley rat arthritis model at 50 mg/kg, po administered daily on day 9 to day 19 post challenge. It is filed as functional, organism-based. Also on record: dose 50 mg/kg.
Test [3] relates to Rattus norvegicus. The test is described as follows: Antiarthritic activity in Freund's complete adjuvant-induced Sprague-Dawley rat arthritis model assessed as reduction in IL-6 mRNA expression at 50 mg/kg, po administered daily on day 9 to day 19 post challenge measured on day 20 by RT-PCR analysis. Also on record: dose 50 mg/kg. The format is functional, organism-based.
Test [4] concerns Rattus norvegicus. The test is described as follows: Antiarthritic activity in Freund's complete adjuvant-induced Sprague-Dawley rat arthritis model assessed as inhibition of joint dysfunction at 25 to 50 mg/kg, po administered daily on day 9 to day 19 post challenge. The format is functional, organism-based.
For test [5], the system named is RAW264.7. Put plainly: Inhibition of LPS-induced IL-1 beta production in mouse RAW264.7 cells at 10 to 40 uM treated 1 hr before LPS challenge measured after 24 hrs by EIA. The format is functional, cell-based.
Test [6] concerns Rattus norvegicus. The test is described as follows: Antiinflammatory activity in rat assessed as inhibition of carrageenan-induced hind paw edema at 25 mg/kg, po administered 1 hr before carrageenan challenge measured up to 5 hrs by plethysmometer. The format is functional, organism-based. Also on record: dose 25 mg/kg.
For test [7], the system named is RAW264.7. Put plainly: Effect on COX-1 mRNA expression in LPS-stimulated mouse RAW264.7 cells. The format is functional, cell-based.
The test system of test [8] is RAW264.7. Put plainly: Inhibition of iNOS protein expression in mouse RAW264.7 cells assessed as reduction in NO production by Western blot analysis. The format is functional, cell-based. A general note: A western blot detects proteins with antibodies after separation by electrophoresis.
For test [9], the target named is T1, Prostaglandin G/H synthase 1 (Ovis aries) (UniProt P05979).
T1 sequence (whole entry): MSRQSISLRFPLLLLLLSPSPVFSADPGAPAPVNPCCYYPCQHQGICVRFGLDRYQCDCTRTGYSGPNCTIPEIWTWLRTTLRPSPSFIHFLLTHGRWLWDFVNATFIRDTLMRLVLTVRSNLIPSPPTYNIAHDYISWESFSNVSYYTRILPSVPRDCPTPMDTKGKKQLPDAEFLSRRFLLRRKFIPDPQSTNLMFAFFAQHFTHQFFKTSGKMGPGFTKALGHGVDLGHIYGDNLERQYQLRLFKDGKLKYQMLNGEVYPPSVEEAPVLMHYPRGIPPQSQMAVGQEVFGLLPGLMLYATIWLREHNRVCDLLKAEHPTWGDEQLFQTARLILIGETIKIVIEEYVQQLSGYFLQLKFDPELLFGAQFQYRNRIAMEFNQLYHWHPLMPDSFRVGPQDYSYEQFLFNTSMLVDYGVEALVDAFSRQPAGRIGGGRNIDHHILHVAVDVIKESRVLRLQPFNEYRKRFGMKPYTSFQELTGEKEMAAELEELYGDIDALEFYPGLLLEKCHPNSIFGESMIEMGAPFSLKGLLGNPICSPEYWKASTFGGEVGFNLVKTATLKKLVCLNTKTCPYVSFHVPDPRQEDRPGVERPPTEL
The test is described as follows: Inhibition of ovine recombinant COX1 assessed as PGF2alpha production at 0.1 to 40 uM preincubated for 10 mins before substrate addition by EIA.

Test [10] has as its system Rattus norvegicus. The test is described as follows: Antiarthritic activity in Freund's complete adjuvant-induced Sprague-Dawley rat arthritis model at 25 mg/kg, po administered daily on day 9 to day 19 post challenge. It is filed as functional, organism-based. Set-up: dose 25 mg/kg.
In test [11] the test system is RAW264.7. Put plainly: Inhibition of LPS-induced IL-1 beta mRNA expression in mouse RAW264.7 cells at 10 to 40 uM treated 1 hr before LPS challenge measured after 24 hrs by RT-PCR analysis. It is filed as functional, cell-based.
In test [12] the test system is Rattus norvegicus. Put plainly: Antiarthritic activity in Freund's complete adjuvant-induced Sprague-Dawley rat arthritis model assessed as reduction in IL-1beta mRNA expression at 50 mg/kg, po administered daily on day 9 to day 19 post challenge measured on day 20 by RT-PCR analysis. It is filed as functional, organism-based. Also on record: dose 50 mg/kg.
The subject of test [13] is RAW264.7. Put plainly: Inhibition of LPS-induced IL-6 production in mouse RAW264.7 cells at 10 to 40 uM treated 1 hr before LPS challenge measured after 24 hrs by EIA. It is filed as functional, cell-based.
Test [14] concerns the target T2, Prostaglandin G/H synthase 2 (Homo sapiens) (UniProt P35354).
T2 sequence (whole entry): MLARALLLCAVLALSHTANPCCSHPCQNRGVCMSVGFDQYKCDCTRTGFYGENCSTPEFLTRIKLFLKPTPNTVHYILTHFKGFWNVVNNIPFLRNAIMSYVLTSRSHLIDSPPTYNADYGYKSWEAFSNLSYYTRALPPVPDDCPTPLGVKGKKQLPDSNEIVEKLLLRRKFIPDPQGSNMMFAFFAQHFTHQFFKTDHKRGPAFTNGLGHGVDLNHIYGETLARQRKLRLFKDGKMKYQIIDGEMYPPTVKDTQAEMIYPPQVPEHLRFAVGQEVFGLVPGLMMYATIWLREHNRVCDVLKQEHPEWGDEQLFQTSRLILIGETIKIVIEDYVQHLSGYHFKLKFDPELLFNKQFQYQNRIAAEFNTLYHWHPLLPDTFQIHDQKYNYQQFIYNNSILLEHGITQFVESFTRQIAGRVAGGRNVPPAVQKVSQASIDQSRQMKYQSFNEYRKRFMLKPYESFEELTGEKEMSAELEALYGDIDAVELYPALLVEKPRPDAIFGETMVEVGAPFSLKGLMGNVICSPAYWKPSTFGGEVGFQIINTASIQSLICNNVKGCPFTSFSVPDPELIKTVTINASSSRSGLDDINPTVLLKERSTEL
The test is described as follows: Inhibition of human recombinant COX2 assessed as PGF2alpha production preincubated for 10 mins before substrate addition by EIA.

Test [15] concerns Rattus norvegicus. Put plainly: Antiinflammatory activity in rat assessed as inhibition of carrageenan-induced myeloperoxidase activity in hind paw at 25 mg/kg, po administered 1 hr before carrageenan challenge measured up to 5 hrs by EIA. It is filed as functional, organism-based. Also on record: dose 25 mg/kg.
Test [16] relates to Rattus norvegicus. The test is described as follows: Antiarthritic activity in Freund's complete adjuvant-induced Sprague-Dawley rat arthritis model assessed as inhibition of ankle swelling at 25 to 50 mg/kg, po administered daily on day 9 to day 19 post challenge. It is filed as functional, organism-based.
In test [17] the test system is RAW264.7. The test is described as follows: Inhibition of LPS-induced iNOS mRNA expression in mouse RAW264.7 cells assessed as reduction in NO production at 10 to 40 uM treated 1 hr before LPS challenge measured after 4 hrs by RT-PCR analysis. It is filed as functional, cell-based.
Test [18] deals with Rattus norvegicus. The test is described as follows: Antiarthritic activity in Freund's complete adjuvant-induced Sprague-Dawley rat arthritis model assessed as reduction in plasma PGE2 levels at 50 mg/kg, po administered daily on day 9 to day 19 post challenge measured after 19 days by EIA. The format is functional. Also on record: scale not given: the % may be the effect or the level left.

For test [19], the system named is RAW264.7. The test is described as follows: Effect on COX-2 mRNA expression in LPS-stimulated mouse RAW264.7 cells at 10 to 40 uM preincubated for 1 hr prior LPS challenge measured after 4 hrs by RT-PCR analysis. The format is functional, cell-based.
The subject of test [20] is Rattus norvegicus. Put plainly: Antiarthritic activity in Freund's complete adjuvant-induced Sprague-Dawley rat arthritis model assessed as inhibition of edema at 25 to 50 mg/kg, po administered daily on day 9 to day 19 post challenge. The format is functional, organism-based.
Test [21] has as its system RAW264.7. The test is described as follows: Effect on COX-1 protein expression in LPS-stimulated mouse RAW264.7 cells. The format is functional, cell-based.
The test system of test [22] is Rattus norvegicus. The test is described as follows: Antiarthritic activity in Freund's complete adjuvant-induced Sprague-Dawley rat arthritis model assessed as reduction in paw volume at 50 mg/kg, po administered daily on day 9 to day 19 post challenge. Set-up: scale not given: the % may be the effect or the level left. The format is functional.
Test [23] has as its system Rattus norvegicus. Put plainly: Antiinflammatory activity in rat assessed as inhibition of carrageenan-induced PGE2 production in hind paw at 25 mg/kg, po administered 1 hr before carrageenan challenge measured up to 5 hrs by EIA. It is filed as functional, organism-based. Set-up: dose 25 mg/kg.
In test [24] the test system is Rattus norvegicus. The test is described as follows: Antiarthritic activity in Freund's complete adjuvant-induced Sprague-Dawley rat arthritis model assessed as inhibition of erythema at 25 to 50 mg/kg, po administered daily on day 9 to day 19 post challenge. It is filed as functional, organism-based.
In test [25] the test system is RAW264.7. Put plainly: Inhibition of LPS-induced PGE2 production in mouse RAW264.7 cells treated 1 hr before LPS challenge measured after 24 hrs by EIA. The format is functional, cell-based.
Test [26] relates to RAW264.7. The test is described as follows: Inhibition of LPS-induced nitric oxide production in mouse RAW264.7 cells at 10 to 40 uM treated 1 hr before LPS challenge measured after 24 hrs by Griess method. It is filed as functional, cell-based.
Test [27] relates to RAW264.7. The test is described as follows: Effect on COX-2 protein expression in LPS-stimulated mouse RAW264.7 cells at 10 to 40 uM preincubated for 1 hr prior LPS challenge measured after 24 hrs by Western blot analysis. It is filed as functional, cell-based.
Test [28] has as its system RAW264.7. Put plainly: Inhibition of LPS-induced IL-6 mRNA expression in mouse RAW264.7 cells at 10 to 40 uM treated 1 hr before LPS challenge measured after 24 hrs by RT-PCR analysis. It is filed as functional, cell-based.

In the case of `CC(C)Cc1ccc(C(C)C(=O)O)cc1` (stereo not given), the inhibition result in the test with Rattus norvegicus [1] was “Active”. Further, in the test with Rattus norvegicus [2], the result was Active.

Take `CSc1ccc(C2=C(c3ccc(O)cc3)C(=O)NC2=O)cc1`: the outcome in the test on Rattus norvegicus [3], with Rattus norvegicus [10], in the test with Rattus norvegicus [12] and with Rattus norvegicus [2] was Active. Besides, the inhibition result in the test with Rattus norvegicus [4], in the test on RAW264.7 [5], in the test on Rattus norvegicus [6], in the test on RAW264.7 [8], in the test with RAW264.7 [11] and with RAW264.7 [13] was “Active” throughout. Moreover, the inhibition result in the test with Rattus norvegicus [15], in the test on Rattus norvegicus [16], with Rattus norvegicus [1], with RAW264.7 [17], in the test with Rattus norvegicus [20] and in the test on Rattus norvegicus [23] was “Active” in each case. Moreover, the inhibition entry in the test with Rattus norvegicus [24], with RAW264.7 [26] and in the test with RAW264.7 [28] was “Active” throughout. Also, the inhibition result (in the test with RAW264.7 [7]; in [9]; in the test on RAW264.7 [19]; in the test with RAW264.7 [21]; in the test with RAW264.7 [27]) was “inactive” each time. Also, the inhibition entry (in [14]; in the test with RAW264.7 [25]) was “Dose-dependent effect” each time. The Activity is listed as 42% in the test with Rattus norvegicus [18] and 53% in the test with Rattus norvegicus [22].
